This passage reports RP-LC retention time results from the METLIN SMRT retention time set (Domingo-Almenara et al. 2019).

The nature of the data set: gradient 5% acetonitrile 3 min, to 50% in 2 min, to 85% in 15 min, held 3 min, 100 µL/min. The settings on record: column: Zorbax Extend-C18 2.1 x 50 mm; eluents: water / acetonitrile, 0.1% formic acid. The method, boiled down: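 Pure standards were analyzed in mixtures of ~100 molecules using HPLC coupled to a quadrupole time-of-flight mass spectrometer, in both positive and negative ionization mode. Separation used a Zorbax Extend-C18 column (2.1 × 50 mm, 1.8 μm) at 100 μL/min, with water and acetonitrile each containing 0.1% formic acid. Dead and dwell volumes were 40 μL and 900 μL, and data were collected over 3 months. Retention time was read from computationally picked adduct peaks, each inspected manually.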
With `Cn1nc(C(=O)N2CCN3CCS(=O)(=O)N(C4CC4)C(=O)C3C2)c2ccccc21` (centres undefined), the RP-LC retention time was determined as 748 s.

In turn, `COc1cccc(-c2noc(COC(=O)C3=CN(Cc4ccccc4)S(=O)(=O)N=C3C)n2)c1` registered an RP-LC retention time of 1110 s.

Regarding `O=C(Cn1c(-c2cccnc2)nc2ccccc21)Nc1ccc(OC(F)(F)F)cc1`, the RP-LC retention time was determined as 853 s.

Molecule `CCCN1C(=O)c2cccnc2Sc2cc(C(=O)N3CCN(CC)CC3)ccc21` yielded an RP-LC retention time of 594 s.

As to `COc1ccc(-n2ccc(=O)c(-c3nc(-c4ccccc4F)no3)n2)cc1OC`, the RP-LC retention time worked out at 770 s.

On to `COc1cc(NC(=O)N2CCCC2c2ccccc2C)cc(OC)c1OC` (centres undefined), for which the RP-LC retention time was determined as 865 s.

Molecule `COC(=O)c1ncn2c1C(=O)N(Cc1ccc(C)cc1)C(C)(C(=O)NCc1ccc(C)cc1)C2` (centres undefined) yielded an RP-LC retention time of 788 s.

`COc1ccc(N2CCN(C(=O)c3[nH]c(C)c(S(=O)(=O)N4CCCC4)c3C)CC2)cc1` came in with an RP-LC retention time of 748 s.

`Cc1ccc(-c2noc(-c3cccc(S(=O)(=O)N4CCOCC4)c3)n2)cc1` gave an RP-LC retention time of 1120 s.

`CCn1c(C)c(CN2CCC(C(=O)NCc3ccc(C)cc3)CC2)c2ccccc21` displayed an RP-LC retention time of 733 s.

`COCCOC1CN(C2CCN(Cc3cccc(C)c3)CC2)C12CCCCC2` (centres undefined) gave an RP-LC retention time of 573 s.

Molecule `CCOC(=O)c1ccccc1NC(=O)CCCn1nc(-c2ccc(F)cc2)ccc1=O` yielded an RP-LC retention time of 922 s.

`CCOc1ccccc1NC(=O)N1CCN(c2cnn3c(C)nnc3c2)CC1` showed an RP-LC retention time of 658 s.

Molecule `COc1cccc(CNC(=O)Cc2csc3nc(-c4ccc(OC)c(OC)c4)cn23)c1` had an RP-LC retention time of 698 s.

Molecule `CCn1c(C(=O)NCCCc2ccccc2)cc2c(-c3cccs3)nn(-c3ccccc3)c21` registered an RP-LC retention time of 1280 s.

Take `CC1CCC(C(=O)Nc2ccc3c(c2)n(C)c(=O)c(=O)n3C)CC1` (centres undefined): the RP-LC retention time came to 737 s.

Consider `CCCS(=O)(=O)c1nc2ccc(NS(=O)(=O)c3cc(C)ccc3C)cc2s1`, for which the RP-LC retention time is 958 s.

For `Cc1oc(-c2ccc(NC(=O)COc3ccccc3)cc2)nc1Cn1cccn1`, the RP-LC retention time came to 887 s.

Consider `Cc1ncoc1C(=O)N1CCC(F)(F)C(COCC2CC2)C1` (centres undefined), for which the RP-LC retention time was 789 s.

`O=C(NCCc1c[nH]c2ccccc12)C1CC(=O)N(c2n[nH]c3cccc(F)c23)C1` (centres undefined) showed an RP-LC retention time of 710 s.

As to `Cc1cc(SCC(=O)N2CCCc3ccccc32)nc(=O)[nH]1`, the RP-LC retention time worked out at 677 s.

`O=C(NCc1ccc2c(c1)OCO2)c1ccc(S(=O)(=O)NCC2CCCO2)cc1` (centres undefined) displayed an RP-LC retention time of 688 s.

As for `O=S(=O)(c1cccc2cccnc12)N1CCc2nc(-c3ccc(F)cc3)ncc2C1`, the RP-LC retention time is 1000 s.

On to `Cc1cc(CN2CCc3nn(Cc4ccccc4)c(=O)n3CC2)n(C)n1`, for which the RP-LC retention time is 611 s.

Molecule `O=C(c1ccc(Cl)cc1)N1CCN(c2cnn3cnnc3c2)CC1` registered an RP-LC retention time of 634 s.

Consider `CCOc1ccc(NS(=O)(=O)c2cc(-c3c(CC)noc3NC(C)=O)ccc2OC)cc1`, for which the RP-LC retention time was determined as 791 s.

Molecule `COc1ccc(NS(=O)(=O)c2cc(-c3nc(C)c(C(=O)N4CCCC4)s3)n(C)c2)cc1OC` showed an RP-LC retention time of 727 s.

The molecule `Cc1sc(-c2nc(C(C)C)cs2)cc1S(=O)(=O)NCc1ccc2c(c1)OCO2` gave an RP-LC retention time of 1130 s.

In turn, `Cc1cccc(-c2nc3c4ccccc4nc(N4CCN(c5ccccn5)CC4)n3n2)c1` came in with an RP-LC retention time of 921 s.

`CCc1ccc(S(=O)(=O)N2C[C@@H](F)C[C@H]2C(=O)N2CCc3ccccc3C2)cc1`: the RP-LC retention time is 998 s.

Turning to `COC(=O)c1ccc2c(=O)n(-c3cccc(Cl)c3)c(N3CCCC3)nc2c1`, the RP-LC retention time amounted to 1040 s.

For `O=C(c1ccc2ncccc2c1)N1C[C@@H](CO)[C@H](c2ccccn2)C1`, the RP-LC retention time worked out at 543 s.

As for `COc1ccc(Cl)cc1NC(=O)NC1CCN(c2nc3ccccc3n(C)c2=O)CC1`, the RP-LC retention time came out at 1010 s.

Turning to `Cc1noc(C)c1-c1ccc(S(=O)(=O)Nc2cccc(Cl)c2)cc1`, the RP-LC retention time turned out to be 966 s.

In the case of `CCC(=O)N1CCc2cc(N3CC(C(=O)Nc4ccc(C)cc4Cl)CC3=O)ccc21` (centres undefined), the RP-LC retention time worked out at 789 s.

`CC(C)(C)c1ccc(-c2noc(Cn3c(=O)n(-c4ccc(Cl)cc4)c(=O)c4sccc43)n2)cc1` came in with an RP-LC retention time of 1280 s.

Molecule `O=C(Cc1ccsc1)NC1CCc2nnc(C3CC3)n2CC1` (centres undefined) showed an RP-LC retention time of 594 s.

On to `CCOc1cc(-c2ccccc2)nc2ccc(NS(=O)(=O)c3ccc(OC)c(OC)c3)cc12`, for which the RP-LC retention time is 730 s.

For the molecule `CS(=O)(=O)NCC1CCN(C(=O)c2ccccc2F)CC1`, the RP-LC retention time turned out to be 608 s.

`COc1ccc(OC)c(NC(=O)c2ccc(S(=O)(=O)NC3CC3)cc2)c1` came in with an RP-LC retention time of 778 s.

As to `C=CCNC(=O)c1cnn(-c2cc(-c3nc(C(C)(C)C)no3)ccn2)c1C`, the RP-LC retention time is 1020 s.

For `Cc1cccc2c(=O)n(C3CCN(S(=O)(=O)c4ccccc4F)CC3)cnc12`, the RP-LC retention time is 940 s.

As for `Cc1c2c(nn1-c1ccc(SCc3ccccc3Cl)nn1)CCC2`, the RP-LC retention time is 1380 s.

As for `COCCN1CC2(CCN(S(=O)(=O)c3ccccc3Cl)CC2)C1c1ccccc1` (centres undefined), the RP-LC retention time was 719 s.

For `Cc1cccc(C)c1NC(=O)Cn1cnc2nc(N3CCC(C(=O)NC4CC4)CC3)sc2c1=O`, the RP-LC retention time stood at 693 s.

As to `COc1ccc(-c2noc(C3CCCN3C(=O)c3ccc(NC(C)=O)cc3)n2)cc1` (centres undefined), the RP-LC retention time stood at 752 s.

In turn, `COc1cc(OC)c(NS(=O)(=O)c2ccc3c(c2)-c2oncc2CO3)cc1Cl` displayed an RP-LC retention time of 910 s.

`CN(C)C(=O)c1cc(=O)[nH]c2c(Cl)cccc12` yielded an RP-LC retention time of 604 s.

In turn, `CCCNC(=O)c1cc(N2CCCC2)n2nccc2n1` displayed an RP-LC retention time of 792 s.

Regarding `O=C(NCC1CCCO1)N1CC(c2nc(CCOCc3ccccc3)no2)C1` (centres undefined), the RP-LC retention time is 713 s.

`CN1C(=O)C2CCCCN2c2ccc(C(=O)NCCc3ccc(Cl)cc3)cc21` (centres undefined) came in with an RP-LC retention time of 971 s.

Turning to `CC(C)S(=O)(=O)c1ccc(C(=O)N2CC(=O)Nc3ccccc32)cc1`, the RP-LC retention time was determined as 653 s.

Regarding `Cc1ccc(-n2c(=O)n(C)c(=O)c3cc(C(=O)Nc4ccccc4)cnc32)cc1`, the RP-LC retention time was 926 s.

Turning to `CNC(=O)c1c(NC(=O)C2COc3ccccc3O2)sc2c1CCCC2` (centres undefined), the RP-LC retention time worked out at 1030 s.

Regarding `COc1ccc(C(=O)NC2CCN(c3nnc4ccc(C(F)(F)F)cn34)CC2)cc1`, the RP-LC retention time came to 751 s.

Turning to `CCOc1ccc(NC(=O)N2CCC[C@@H]2C(=O)NCc2csc(-c3ccccc3)n2)cc1`, the RP-LC retention time amounted to 808 s.

Molecule `CNC(=O)c1ccsc1NC(=O)CN1C(=O)c2ccccc2C1=O` showed an RP-LC retention time of 701 s.

For `CCN(CC)C(=O)C1CCCN1S(=O)(=O)c1cc2c(cc1C)NC(=O)C(C)O2` (centres undefined), the RP-LC retention time is 714 s.

Turning to `Cn1cnc2c(F)c(Nc3ccc(Br)cc3Cl)c(C(=O)NOCCO)cc21`, the RP-LC retention time came to 789 s.

`Cc1ccc2[nH]c(=O)c(CCC(=O)NCCCN3CCc4ccccc4C3)cc2c1`: the RP-LC retention time was determined as 629 s.

Regarding `COc1ccccc1CNC(=O)CN1CCN(Cc2ccc(F)cc2Cl)C1=O`, the RP-LC retention time is 858 s.

In the case of `CC1CCN(c2cc(-n3ccnc3)ncn2)CC1`, the RP-LC retention time was determined as 651 s.

Molecule `Cc1cc(NC(=O)C2CCN(C(=O)Cc3c(C)noc3C)CC2)no1` had an RP-LC retention time of 621 s.

`CCCNC(=O)c1nnn(Cc2ccc(Cl)cc2)c1-n1cccc1`: the RP-LC retention time is 980 s.

As for `CCn1nc(C)c(CCNC(=O)CCCn2c3ccccc3c3cnn(C)c(=O)c32)c1C`, the RP-LC retention time was found to be 698 s.

For the molecule `Cc1ccccc1NC(=O)Cn1cnc2nc(N3CCC(C(=O)NC4CC4)CC3)sc2c1=O`, the RP-LC retention time came out at 644 s.

`COCCNC(=O)C1CCCN(c2nn3cc(-c4ccc(F)cc4)nc3s2)C1` (centres undefined): the RP-LC retention time is 756 s.

For the molecule `Cc1ccc(C2(O)C(=O)N(Cc3nc(-c4ccccc4)oc3C)c3ccccc32)cc1` (centres undefined), the RP-LC retention time is 1110 s.

The molecule `COc1cccc(C(=O)N2CCC(c3cc(N)on3)CC2)c1` displayed an RP-LC retention time of 653 s.

Molecule `Cc1cc(NC(=O)COc2cccc3c(=O)n(C)ccc23)no1` had an RP-LC retention time of 660 s.

The molecule `CCOc1ccc(/C=C/c2nc(C#N)c(NCCN(C)C)o2)cc1` came in with an RP-LC retention time of 668 s.

In the case of `NC(=O)[C@@H]1C[C@H](Oc2cccnc2)CN1C(=O)CC1CCCC1`, the RP-LC retention time was determined as 584 s.

`C#CC1(N2CCCCC2)CCCCC1` yielded an RP-LC retention time of 638 s.

`Cc1c(-c2noc(C(=O)N3CCN(Cc4ccc5c(c4)OCO5)CC3)n2)oc2c(C)cccc12` returned an RP-LC retention time of 837 s.

In the case of `Cc1cccc(CNC2=NCCNC23CCN(S(=O)(=O)c2ccc(Cl)cc2)CC3)c1`, the RP-LC retention time was found to be 762 s.

Molecule `CC(NC(=O)c1ccco1)c1nc2ccccc2n1CC(=O)N1CCOCC1` (centres undefined) showed an RP-LC retention time of 586 s.

In turn, `COc1cccc(-c2cc(=O)n3c4ccccc4n(CC(=O)NC(C)C)c3n2)c1` came in with an RP-LC retention time of 858 s.

Turning to `COc1ccc(-c2nc3ccccn3c2Nc2ccccc2C)cc1`, the RP-LC retention time was determined as 721 s.

`Cc1ccc(-c2nnc(-c3nn(C)c4c3CN(S(=O)(=O)c3cccc(F)c3)CC4)o2)cc1` came in with an RP-LC retention time of 999 s.
